Measurements as given in EP0950418A2, “Composition for preventing or treating ischemic disease” (Takeda Chemical Industries, Ltd., priority 1998, dated 1999).

What was measured:
myocardial infarct size = assay: Rat acute myocardial infarction model (extension of myocardial infarct size); assay type: in vivo; details: 1 mg/kg, i.v.
Method: (1) Inhibitory effects of Compound A on the extension of myocardial infarct size were determined by "Rat acute myocardial infarction model" described in British Journal of Pharmacology, 114, 949-954 (1995).
(2) Inhibitory effects of Compound B [(S)-(-)-7-(2-chlorophenyl)-5-guanidinoimino-4-methyl-5,6,7,8-tetrahydroquinoline] on the extension of myocardial infarct size were determined by "Rat acute myocardial infarction model" described in British Journal of Pharmacology, 114, 949-954 (1995).

lethal arrhythmia = assay: Lethal arrhythmia induced by coronary artery occlusion for 5 minutes with reperfusion; assay type: in vivo, Male Wistar rats
Method: Inhibitory effects of Compounds A and B on lethal arrhythmia were determined by the following method:
Male Wistar rats (10-week-old) were anaesthetized with pentobarbital and the chest was opened to expose the heart. Arrhythmia was induced by coronary artery occlusion for 5 minutes with reperfusion of the coronary blood flow. Ventricular arrhythmia observed during occlusion and for 5 minutes after reperfusion was recorded on Mac Lab through polygraph, and the II Lead electro-cardiogram was recorded. Ventricular tachycardia (VT) was counted when premature ventricular complex (PVC) continued more than 5 times. Each of the drugs was dissolved in saline and administered from the femoral vein 5 minutes before coronary artery occlusion.

[1] = premature ventricular complex, drug in saline via femoral vein 5 minutes before coronary artery occlusion
[2] = ventricular tachycardia, drug in saline via femoral vein 5 minutes before coronary artery occlusion

## Cc1ccnc2c1C(=NNC(=N)N)C[C@@H](c1ccccc1Cl)C2 [Compound B, (S)-(-)-7-(2-chlorophenyl)-5-guanidinoimino-4-methyl-5,6,7,8-tetrahydroquinoline]
Myocardial infarct size; Post-treatment, 1 minute before reperfusion started
  infarct size/area-at-risk: 39±3 %
Myocardial infarct size; Pre-treatment, 5 minutes before coronary occlusion
  infarct size/area-at-risk: 30±5 % t**
Lethal arrhythmia; [1]
  PVC D (duration): 20.9 ± 4.3 s
  PVC N (number of PVCs): 4.8±2.8 time
Lethal arrhythmia; summary in words of the arrhythmia table
  inhibitory effects on lethal arrhythmia: showed inhibitory effects on lethal arrhythmia
Lethal arrhythmia; [2]
  VT D (duration): 7.2 ± 3.6 s
  VT F (frequency): 3.0±0.7 time
